Laboratory results as given in patent publication US10570149B2, “Tricyclic heterocylic derivatives” (MERCK PATENT GMBH, priority 2016, dated 2020).

Key:
ATR/ATRIP = target: T1, ATR/ATRIP (Homo sapiens, UniProt Q13535); assay: ATR/ATRIP kinase assay (TR-FRET, p53 phosphorylation); type: biochemical; conditions: Table 1, class symbols; read-out: ATR-ATRIP IC50
T1 construct: human ATR, full length, GenBank ID: NM_001184.3; p53: Sf21 insect cells

[1] = test system: phosphorylation of Chk1 (Ser 345) in HT29 colon adenocarcinoma cells; assay: pCHK1 cellular assay; type: cell-based; conditions: Homo sapiens
Description: Chk1 kinase acts downstream of ATR and has a key role in DNA damage checkpoint control. Activation of Chk1 involves phosphorylation of Ser317 and Ser345 (regarded as the preferential target for phosphorylation/activation by ATR) and occurs in response to blocked DNA replication and certain forms of genotoxic stress. Phosphorylation at Ser 345 serves to localize Chk1 to the nucleus following checkpoint activation.
This assay measures a decrease in phosphorylation of Chk1 (Ser 345) in HT29 colon adenocarcinoma cells following treatment with compound and hydroxyurea (which promotes fork stalling because of dNTP depletion) and using an immunocytochemical procedure and high content imaging.
For the assay HT29 cells are plated in culture medium (DMEM high Glucose (no phenol red), 2 mM Glutamax, 1 mM Pyruvate, 10% FCS into Greiner 384 well plates, black, μclear #781090 (2500 cells/well/30 μl) and incubated for at least 20 hours at 37° C., 10% CO2 and 90% rH. Diluted test compounds (1 nM-30 μM final) and hydroxyurea (3 mM final) are added simultaneously and cells are incubated for 4 h at 37° C. After fixation/prmeabilisation with 100% MeOH (−20° C. cold) and permeabilisation with 0.2% Triton X-100 a complete immunocytochemical procedure is performed using a specific anti-pChk1 antibody (Cell Signaling, #2348BF) and fluorescently labelled secondary antibody (Alexa Fluor® 488 goat anti-rabbit F(ab′)2 fragment, Invitrogen A11070) and parallel nuclear staining for cell counting.
The nuclear localised pChk1 signal is detected on an ImageXpress Ultra confocal high content reader and reported as % positive cells (nuclei).

[2] = test system: phosphorylation of H2AX (gH2AX) in U2OS-TopBP1-ER cells; assay: gH2AX-TopBP1ER cellular assay; type: cell-based
Description: gH2AX-TopBP1ER Cellular Assay
ATR activity is restricted to replicating cells and many of its targets can also be phosphorylated by other PIKKs. These restrictions have limited the development of selective cellular assays in the past. In order to overcome these limitations, a previously developed genetically engineered cellular system in which ATR, and only ATR, can be activated at will in every cell (Toledo et al Genes Dev. 22, 297-302 2008) was used. In this system, the addition of 4-hydroxytamoxifen (4-OHT), promotes the nuclear translocation of a fragment of TopBP1 which then activates ATR. The phosphorylation of H2AX that follows 4-OHT addition in these cells is a direct and selective readout of ATR activity, which is not influenced by the rest of PIKKs. This property has been used in a screen for compounds with ATR inhibitory capacity. U2OS-TopBP1-ER cells stably express the TopBP1 activation domain (aa 978-1286) fused to a mutated estrogen receptor ligand binding domain. Nuclear accumulation of the TopBP1-ER-LBD fusion protein is induced by the synthetic ER antagonist 4-hydroxytamoxifen (4-OHT) (and not by natural ER agonists) mediating specific ATR activation that is independent of DNA damage or cell cycle. In the assay phosphorylation of the ATR substrate H2AX (“gH2AX”) at Serin 139 is detected using an immune-cytochemical procedure and high content imaging. For the assay U2OS-TopBP1-ER cells are plated in culture medium (DMEM high Glucose (no phenol red), 2 mM Glutamax, 1 mM Pyruvate, 10% FCS into Greiner 384 well plates, black, μclear #781090 (4000 cells/well/30 μl) and incubated for at least 20 hours at 37° C., 10% CO2 and 90% rH. Diluted test compounds (1 nM-30 μM final) and 4-OHT (1 μM final) are added simultaneously and cells are incubated for 2 h at 37° C. After fixation with 4% formaldehyde and permeabilisation with 0.2% Triton X-100 a complete immunocytochemical procedure is performed using a specific anti-gH2AX-antibody (Millipore 05-636, clone JBW301) and fluorescently labelled secondary antibody (Alexa Fluor® 488 goat anti-mouse F(ab′)2 fragment, Invitrogen A11017) and parallel nuclear staining for cell counting. The nuclear localised gH2AX signal is detected on an ImageXpress Ultra confocal high content reader and reported as % positive cells (nuclei).

[3] = HT-29, Table 1, class symbols, hydroxyurea

T1 sequence (Q13535 whole entry): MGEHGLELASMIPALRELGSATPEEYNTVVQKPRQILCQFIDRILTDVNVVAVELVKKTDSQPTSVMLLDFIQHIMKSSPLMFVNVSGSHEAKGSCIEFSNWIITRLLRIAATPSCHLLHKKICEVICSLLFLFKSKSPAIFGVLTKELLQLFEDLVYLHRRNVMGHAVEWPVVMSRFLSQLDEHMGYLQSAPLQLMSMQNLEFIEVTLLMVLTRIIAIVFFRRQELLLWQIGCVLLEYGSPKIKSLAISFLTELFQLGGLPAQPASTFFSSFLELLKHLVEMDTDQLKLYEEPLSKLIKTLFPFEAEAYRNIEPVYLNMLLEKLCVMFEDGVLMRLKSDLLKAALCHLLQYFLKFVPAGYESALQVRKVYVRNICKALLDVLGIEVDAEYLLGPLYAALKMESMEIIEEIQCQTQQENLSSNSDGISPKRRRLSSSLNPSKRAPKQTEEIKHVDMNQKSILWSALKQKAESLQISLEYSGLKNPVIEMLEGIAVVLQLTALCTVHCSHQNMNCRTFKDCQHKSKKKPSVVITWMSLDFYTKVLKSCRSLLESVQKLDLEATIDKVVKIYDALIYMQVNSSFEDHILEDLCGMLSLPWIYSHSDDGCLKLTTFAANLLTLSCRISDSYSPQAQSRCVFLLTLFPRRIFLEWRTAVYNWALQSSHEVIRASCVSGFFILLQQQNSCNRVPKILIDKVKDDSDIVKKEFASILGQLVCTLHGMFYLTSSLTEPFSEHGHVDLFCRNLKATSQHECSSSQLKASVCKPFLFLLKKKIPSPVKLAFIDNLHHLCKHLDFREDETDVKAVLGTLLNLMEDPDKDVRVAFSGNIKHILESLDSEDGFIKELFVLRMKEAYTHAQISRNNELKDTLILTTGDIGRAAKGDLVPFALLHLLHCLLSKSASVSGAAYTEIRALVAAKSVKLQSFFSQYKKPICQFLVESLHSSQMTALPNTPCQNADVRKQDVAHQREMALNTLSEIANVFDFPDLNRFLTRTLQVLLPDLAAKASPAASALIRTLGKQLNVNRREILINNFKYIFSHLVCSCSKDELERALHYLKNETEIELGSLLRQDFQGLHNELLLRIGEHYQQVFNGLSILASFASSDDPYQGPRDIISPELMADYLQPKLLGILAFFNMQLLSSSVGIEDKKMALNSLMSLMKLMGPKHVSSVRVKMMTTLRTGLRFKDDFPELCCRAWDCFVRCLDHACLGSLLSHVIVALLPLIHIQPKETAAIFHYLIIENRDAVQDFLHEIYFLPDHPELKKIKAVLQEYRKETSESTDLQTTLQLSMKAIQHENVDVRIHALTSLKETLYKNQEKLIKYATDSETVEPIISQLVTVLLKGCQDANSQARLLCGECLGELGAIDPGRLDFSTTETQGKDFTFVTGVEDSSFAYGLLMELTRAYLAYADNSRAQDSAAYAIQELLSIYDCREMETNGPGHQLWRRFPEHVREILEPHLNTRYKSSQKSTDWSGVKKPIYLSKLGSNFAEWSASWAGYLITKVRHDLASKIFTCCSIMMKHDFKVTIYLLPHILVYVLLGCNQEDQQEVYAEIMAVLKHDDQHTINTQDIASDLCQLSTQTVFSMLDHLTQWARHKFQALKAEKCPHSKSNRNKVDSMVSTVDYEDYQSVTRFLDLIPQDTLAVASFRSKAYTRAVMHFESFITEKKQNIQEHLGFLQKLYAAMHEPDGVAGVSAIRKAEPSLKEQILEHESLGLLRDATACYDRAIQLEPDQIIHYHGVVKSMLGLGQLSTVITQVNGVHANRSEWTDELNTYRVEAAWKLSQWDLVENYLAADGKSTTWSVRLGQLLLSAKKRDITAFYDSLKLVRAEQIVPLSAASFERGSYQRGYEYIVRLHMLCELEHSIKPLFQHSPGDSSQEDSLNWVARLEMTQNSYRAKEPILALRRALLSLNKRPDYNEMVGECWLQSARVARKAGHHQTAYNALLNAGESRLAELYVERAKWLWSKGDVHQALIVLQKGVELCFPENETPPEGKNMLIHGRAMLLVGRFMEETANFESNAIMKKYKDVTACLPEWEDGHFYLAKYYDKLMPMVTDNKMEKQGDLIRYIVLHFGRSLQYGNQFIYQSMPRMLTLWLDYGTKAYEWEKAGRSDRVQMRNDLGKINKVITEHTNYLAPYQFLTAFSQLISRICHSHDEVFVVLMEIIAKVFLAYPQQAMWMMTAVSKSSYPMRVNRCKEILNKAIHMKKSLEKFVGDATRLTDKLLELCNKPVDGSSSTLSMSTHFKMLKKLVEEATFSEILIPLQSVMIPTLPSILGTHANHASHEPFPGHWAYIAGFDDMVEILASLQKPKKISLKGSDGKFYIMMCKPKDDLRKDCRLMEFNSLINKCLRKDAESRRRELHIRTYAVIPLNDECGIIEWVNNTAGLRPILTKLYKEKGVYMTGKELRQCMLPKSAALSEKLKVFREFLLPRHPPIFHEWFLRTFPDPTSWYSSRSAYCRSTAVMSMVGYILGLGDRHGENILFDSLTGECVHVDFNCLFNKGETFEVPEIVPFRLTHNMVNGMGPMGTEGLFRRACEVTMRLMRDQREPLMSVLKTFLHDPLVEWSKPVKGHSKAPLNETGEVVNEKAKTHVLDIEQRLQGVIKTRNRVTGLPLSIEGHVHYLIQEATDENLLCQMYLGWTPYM
T1 sequence (Q8WXE1 whole entry partner): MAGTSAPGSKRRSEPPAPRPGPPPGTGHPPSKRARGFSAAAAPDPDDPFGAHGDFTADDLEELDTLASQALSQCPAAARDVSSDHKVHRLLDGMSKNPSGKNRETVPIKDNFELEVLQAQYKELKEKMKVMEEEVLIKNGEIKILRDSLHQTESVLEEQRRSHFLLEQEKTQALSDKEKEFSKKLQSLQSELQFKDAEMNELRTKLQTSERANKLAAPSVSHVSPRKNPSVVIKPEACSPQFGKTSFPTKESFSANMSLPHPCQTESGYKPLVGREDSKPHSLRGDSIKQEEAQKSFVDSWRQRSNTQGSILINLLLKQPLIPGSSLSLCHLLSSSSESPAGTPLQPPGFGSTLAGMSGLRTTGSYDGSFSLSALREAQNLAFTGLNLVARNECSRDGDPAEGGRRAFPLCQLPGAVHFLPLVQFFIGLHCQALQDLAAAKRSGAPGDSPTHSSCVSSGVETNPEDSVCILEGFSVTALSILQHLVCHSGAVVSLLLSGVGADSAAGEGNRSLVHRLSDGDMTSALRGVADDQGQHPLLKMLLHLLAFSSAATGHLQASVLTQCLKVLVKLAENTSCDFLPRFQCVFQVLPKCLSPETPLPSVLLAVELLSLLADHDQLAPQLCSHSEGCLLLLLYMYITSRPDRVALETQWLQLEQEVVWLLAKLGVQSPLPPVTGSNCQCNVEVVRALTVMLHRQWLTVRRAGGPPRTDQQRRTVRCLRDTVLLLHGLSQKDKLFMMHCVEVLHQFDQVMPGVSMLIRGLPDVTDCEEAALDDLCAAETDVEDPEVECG

| IC50 (ATR/ATRIP) [nM] | IC50 [1, 3] [nM] | IC50 ([2]; Table 1, class symbols, 4-OHT) [nM] | IC50 ([1]; HT-29, Table 2, hydroxyurea) [nM] | IC50 ([2]; Table 2, 4-OHT) [nM] | Structure (SMILES) |
| --- | --- | --- | --- | --- | --- |
| 10 to 100 | 10 to 100 | 100 to 1000 | – | – | CNc1nccn1-c1nc2c(c(C(C)(C)S(C)(=O)=O)n1)OC[C@@H]1COC[C@@H](C)N21 [A10, {1-[(5R,8aS)-1-(1-Methanesulfonyl-1-methyl-ethyl)-5-methyl-5,6,8a,9-tetrahydro-8H-7,10-dioxa-2,4,4b-triaza-phenanthren-3-yl]-1H-imidazol-2-yl}-methyl-amine] |
| < 1 | 10 to 100 | 100 to 1000 | – | – | C[C@@H]1COC[C@H]2COc3c(nc(-n4c(N)nc5ccccc54)nc3C(C)(C)S(C)(=O)=O)N21 [A11, 1-[(5R,8aS)-1-(1-Methanesulfonyl-1-methyl-ethyl)-5-methyl-5,6,8a,9-tetrahydro-8H-7,10-dioxa-2,4,4b-triaza-phenanthren-3-yl]-1H-benzimidazol-2-ylamine] |
| < 1 | 100 to 1000 | 10 to 100 | – | – | C[C@@H]1COC[C@H]2COc3c(nc(-c4c(N)cnc5[nH]ccc45)nc3C(C)(C)O)N21 [A21, 2-[(5R,8aS)-3-(5-Amino-1H-pyrrolo[2,3-b]pyridin-4-yl)-5-methyl-5,6,8a,9-tetrahydro-8H-7,10-dioxa-2,4,4b-triaza-phenanthren-1-yl]-propan-2-ol] |
| < 1 | 10 to 100 | 10 to 100 | 25 | 37 | CNc1nc2ccccc2n1-c1nc2c(c(C3(S(C)(=O)=O)CC3)n1)OC[C@@H]1COC[C@@H](C)N21 [A26, {1-[(4bR,8S)-1-(1-Methanesulfonyl-cyclopropyl)-5-methyl-5,6,8a,9-tetrahydro-8H-7,10-dioxa-2,4,4b-triaza-phenanthren-3-yl]-1H-benzimidazol-2-yl}-methylamine] |
| < 1 | 10 to 100 | 10 to 100 | – | – | C[C@@H]1COC[C@H]2COc3c(nc(-c4ccnc5[nH]ccc45)nc3C(C)(C)O)N21 [A6, 2-[(5R,8aS)-5-Methyl-3-(1H-pyrrolo[2,3-b]pyridin-4-yl)-5,6,8a,9-tetrahydro-8H-7,10-dioxa-2,4,4b-triaza-phenanthren-1-yl]-propan-2-ol] |
| < 1 | 10 to 100 | 100 to 1000 | – | – | CNc1nc2ccccc2n1-c1nc2c(c(C(C)(C)O)n1)OC[C@@H]1COC[C@@H](C)N21 [A9, 2-[(5R,8aS)-5-Methyl-3-(2-methylamino-benzimidazol-1-yl)-5,6,8a,9-tetrahydro-8H-7,10-dioxa-2,4,4b-triaza-phenanthren-1-yl]-propan-2-ol] |
| < 1 | 10 to 100 | 100 to 1000 | – | – | CNc1nc2c(F)cccc2n1-c1nc2c(c(C(C)(C)S(C)(=O)=O)n1)OC[C@@H]1COC[C@@H](C)N21 [A25, {4-Fluoro-1-[(5R,8aS)-1-(1-methanesulfonyl-1-methyl-ethyl)-5-methyl-5,6,8a,9-tetrahydro-8H-7,10-dioxa-2,4,4b-triaza-phenanthren-3-yl]-1H-benzimidazol-2-yl}-methyl-amine] |
